Like-named read-outs stand apart in the source and are kept apart here.
Tests used:
[1] = Pharmacokinetic study of four steroidal saponins in rat plasma after oral administration of A. asphodeloides fractions (UPLC-MS/MS); type: in vivo, Sprague-Dawley rats; conditions: for AUC(0-t) / Cmax / half-life / Tmax: male, Sprague-Dawley; for AUC(0-t) / Cmax / half-life / Tmax / T1/2: rat plasma, single oral dose, n = 6, mean ± S.D.; for AUC(0-t): read-out: AUC0–t; for Cmax: read-out: Cmax; for half-life: read-out: T1/2 (converted); for Tmax: read-out: Tmax; for shape of plasma concentration-time curve: after oral administration
Description: The dried A. asphodeloides were chopped into slices before using. The A. asphodeloides was immersed in water (1:10, w/v) and extracted twice by refluxing for 2 h. After filtration, the supernatant was condensed to a certain volume under reduced pressure, and 95% ethanol was added to the water extract filtrates until the concentration of ethanol was 80%. The precipitate was filtered as the macromolecular fraction (MF), the ethanol supernatant was concentrated under reduced pressure to a certain volume under vacuum and then purified by gradient elution with water, 40% ethanol and 70% ethanol from an AB-8 MARO porous resin column and then the water-eluted fraction was combined with the 40% ethanol-eluted fraction as the small molecule fraction (SF) and the 70% ethanol eluted fraction was the A. asphodeloides saponins extract (ASE). All of the residues were lyophilized and the resulting dry powder was stored at 4 °C before usage. The contents of four steroidal saponins in ASE dry powder were measured quantitatively by the external standard method using the same chromatography conditions as described above. The contents of timosaponin BII, anemarsaponin BIII, timosaponin AIII and timosaponin E1 in ASE were 429.12, 89.81, 59.13 and 41.25 mg/g, respectively.
Frozen plasma samples were unfrozen at room temperature and treated as follows: to each 200 µL plasma sample, 20 µL of IS (920 ng/mL ginsenoside Re) working solution and 600 µL of acetonitrile were added. After vortexing for 2 min and centrifugation at 13,000 rpm at 4 °C for 10 min the supernatant was transferred into a new tube and evaporated to dryness in a rotary evaporator at 39 °C and the residue was reconstituted in 100 µL of 0.1% formic acid–acetonitrile (50:50, v/v), vortexed for 2 min and centrifuged at 13,000 rpm at 4 °C for 10 min. The supernatant was transferred to an autosampler vial and an aliquot of 2 μL was injected onto the UPLC-MS/MS system for analysis.
Male Sprague-Dawley rats (250–280 g) were obtained from the Shanghai Slac Laboratory Animal Co., Ltd. (Shanghai, China). All animals were kept in an environmentally controlled breeding room (temperature: 20–25 °C, humidity: 55%–65%) for 1 week before the experiments started. Animal welfare and experimental procedures were strictly in accordance with the ethical norms of the Nanjing University of Chinese Medicine. All rats were fasted for 12 h with free access to water prior to the experiments, twenty-four rats were divided into four groups and then were given a single dose of ASE, ASE-SF, AS-MF, AS-M-SF. A 40 mg/mL ASE (the amount of MF, SF added to group AS-MF, ASE-SF, AS-M-SF were based on the proportion extracted from A. asphodeloides) aqueous solution in each group was administered orally at a dose of 400 mg/kg, which contained 171.61, 35.92, 23.62, 16.53 mg/kg of timosaponin BII, anemarsaponin BIII, timosaponin AIII, timosaponin E1, respectively.
About 400 μL blood samples were collected from venipuncture before intragastric gavage and at 0.083, 0.25, 0.5, 1, 1.5, 2, 4, 6, 8, 10, 12, 24 h after a single oral administration. The blood samples were immediately transferred to heparinized tubes and centrifuged at 3000 rpm for 10 min, and the supernatant was transferred into 2.0 mL Eppendorf tubes and stored at −80 °C prior to analysis. Blank plasma was obtained from the rat without oral administration and was used to investigate the assay development and validation.
To calculate the pharmacokinetic parameters of analytes in different group, concentrations–time dada were analyzed by DAS 3.2 software (Mathematical Pharmacology Professional Committee of China, Shanghai, China, 2011). Data were measured as the mean ± standard deviation (S.D.) with triplicate measurements. The identification of significances between different groups was executed with Student’s t-test. A p value < 0.05 was considered statistically significant.

[2] = Stability of analytes in rat plasma QC samples (auto-sampler, long-term, freeze-thaw); type: in vitro ADME; conditions: n = 6; for Stability, Auto-Sampler for 24 h, Mean: 4 °C; for Stability, Freeze–Thaw Cycles, Mean: three cycles −80 °C to room temperature
Description: Stock solutions were separately prepared by dissolving the four accurately weighed standard reference compounds in a mixture of 50% acetonitrile. Then, the four stock solutions were mixed and diluted with 50% acetonitrile to prepare a final mixed standard solution containing 650.00 ng/mL of timosaponin BII, 620.00 ng/mL of anemarsaponin BIII, 485.00 ng/mL of timosaponin AIII, 530.00 ng/mL of timosaponin E1. A series of working solutions were freshly prepared by diluting mixed standard solution with 50% acetonitrile to the appropriate concentration. The internal standard solution of ginsenoside Re was prepared to the concentration of 920 ng/mL in 50% acetonitrile. For the validation of the method, three concentrations of standard solution containing timosaponin BII (5.20, 52.00 and 520 ng/mL), anemarsaponin BIII (4.96, 49.60 and 496.00 ng/mL), timosaponin AIII (3.88, 38.8 and 388 ng/mL), timosaponin E1 (4.24, 42.40 and 424.00 ng/mL) were used for preparing the QC plasma samples. The stability experiments were measured by analyzing replicates (n = 6) of three QC samples during the sample storing and processing procedures. For all stability experiments, freshly prepared stability testing QC samples were evaluated by using freshly prepared standard curve for the measurement. The post-preparation stability was tested by determined of the extracted QC samples stored in the auto-sampler (4 °C) for 24 h. The freeze and thaw stability were determined after three freeze-thaw cycles (−80 °C to room temperature). Long-term stability in rat plasma stored at −80 °C was studied for a period of one month.

[3] = rat, plasma, po, 400 mg/kg, Group ASE (ASE 400 mg/kg)
[4] = rat, plasma, po, 400 mg/kg, Group ASE-MF (ASE 400 mg/kg plus macromolecular fraction)
[5] = rat, plasma, po, 400 mg/kg, Group ASE-MF
[6] = rat, plasma, po, 400 mg/kg, Group ASE-SF (ASE 400 mg/kg plus small molecule fraction)
[7] = rat, plasma, po, 400 mg/kg, Group ASE-SF
[8] = rat, plasma, po, 400 mg/kg, Group ASE-SF-MF
[9] = high concentration (388.00–520.00 ng/mL)
[10] = low concentration (3.88–5.20 ng/mL)
[11] = middle concentration (38.80–52.00 ng/mL)

SMILES | AUC(0-t) [1, 3] | Cmax [1, 3] | half-life [1, 3] | Tmax [1, 3] | Cmax [1, 4] | AUC(0-t) [1, 5] | half-life [1, 5] | Tmax [1, 5] | Cmax [1, 6] | half-life [1, 7] | Tmax [1, 7] | T1/2 ([1]; Group ASE-SF) | shape of plasma concentration-time curve ([1]; rat) | Stability, Auto-Sampler for 24 h, Mean [2, 9] | Stability, at −80 °C for 1 Month, Mean [2, 9] | Stability, Freeze–Thaw Cycles, Mean [2, 9] | Stability, Auto-Sampler for 24 h, Mean [2, 10] | Stability, at −80 °C for 1 Month, Mean [2, 10] | Stability, Freeze–Thaw Cycles, Mean [2, 10] | Stability, Auto-Sampler for 24 h, Mean [2, 11] | also measured
C[C@H]1CC[C@@]2(OC1)O[C@H]1C[C@H]3[C@@H]4CC[C@@H]5C[C@@H](O[C@@H]6O[C@H](CO)[C@H](O)[C@H](O)[C@H]6O[C@@H]6O[C@H](CO)[C@@H](O)[C@H](O)[C@H]6O)CC[C@]5(C)[C@H]4CC[C@]3(C)[C@H]1[C@@H]2C [Timosaponin AIII, timosaponin AIII] | 644 ± 59 ng·h/mL | 65.2 ± 4.16 ng/mL | 5.31 ± 3.03 h | 5.66 ± 0.81 h | 63.6 ± 3.16 ng/mL | 688 ± 46.3 ng·h/mL | 6.95 ± 6.23 h | 4.33 ± 0.81 h | 69.8 ± 2.86 ng/mL | 8.2 ± 2.74 h | 5.33 ± 1.03 h | significantly increased | single peak | 96.4% | 99.0% | 102.8% | 100.9% | 100.4% | 102.2% | 97.0% | Cmax ([1]; rat, plasma, po, 400 mg/kg, Group ASE-SF-MF (ASE 400 mg/kg plus small molecule and macromolecular fraction)): 74 ± 6.18 ng/mL; AUC(0-t) [1, 8]: 890 ± 57.2 ng·h/mL; half-life [1, 8]: 8.94 ± 1.24 h; Tmax [1, 8]: 5.66 ± 0.81 h; Stability, at −80 °C for 1 Month, Mean [2, 11]: 101.7%; Stability, Freeze–Thaw Cycles, Mean [2, 11]: 96.2%
C[C@@H](CC[C@@]1(O)O[C@H]2C[C@H]3[C@@H]4CC[C@@H]5C[C@@H](O[C@@H]6O[C@H](CO)[C@H](O)[C@H](O)[C@H]6O[C@@H]6O[C@H](CO)[C@@H](O)[C@H](O)[C@H]6O)CC[C@]5(C)[C@H]4CC[C@]3(C)[C@H]2[C@@H]1C)CO[C@@H]1O[C@H](CO)[C@@H](O)[C@H](O)[C@H]1O [Timosaponin BII, timosaponin BII] | 2040 ± 146 ng·h/mL | 271 ± 22.5 ng/mL | 3.21 ± 1.17 h | 3.75 ± 1.78 h | 287 ± 11.9 ng/mL | 1980 ± 104 ng·h/mL | 3.34 ± 1.19 h | 3.41 ± 1.43 h | 415 ± 41.8 ng/mL | 3.63 ± 1.28 h | 5 ± 1.67 h | no obvious difference | double peak | 88.3% | 95.4% | 91.4% | 95.3% | 94.7% | 98.0% | 98.1% | AUC(0-t) ([1]; 400 mg/kg, Group ASE-SF-MF): 3310 ± 575 ng·h/mL; half-life ([1]; 400 mg/kg, Group ASE-SF-MF): 5.18 ± 1.88 h; Tmax ([1]; 400 mg/kg, Group ASE-SF-MF): 3.17 ± 2.21 h; AUC(0-t) [1, 7]: 3090 ± 628 ng·h/mL; Cmax ([1]; Group ASE-SF-MF (ASE 400 mg/kg plus small molecule and macromolecular fraction)): 400 ± 39.6 ng/mL; Stability, at −80 °C for 1 Month, Mean [2, 11]: 98.2%; Stability, Freeze–Thaw Cycles, Mean [2, 11]: 95.5%

From article PMC6331991, “Anemarrhena asphodeloides Non-Steroidal Saponin Components Alter the Pharmacokinetic Profile of Its Steroidal Saponins in Rat” (Molecules, 2015)
